Measurements: patent US20060100210A1, “Methods for treatment of scleroderma” (priority 2001, published 2006)
Where a name gives a salt, the structure may show the parent alone. Read-outs that look alike come from different tables or passages of the source.

Tests used:
[1] = target: T1, GST-cGB-PDE5 fusion protein (cGMP binding sites of human PDE5A) (Homo sapiens, UniProt O76074); experiment: cGMP binding assay with GST-cGB-PDE5 fusion protein; conditions: for competition with cGMP in binding of GST-cGB-PDE5: high concentration (100 μM) vs cGMP (2 μM)
T1 construct: made in house; host or cells: E. coli BL21 (DE3)
T1 sequence (O76074 46-539 limits assumed): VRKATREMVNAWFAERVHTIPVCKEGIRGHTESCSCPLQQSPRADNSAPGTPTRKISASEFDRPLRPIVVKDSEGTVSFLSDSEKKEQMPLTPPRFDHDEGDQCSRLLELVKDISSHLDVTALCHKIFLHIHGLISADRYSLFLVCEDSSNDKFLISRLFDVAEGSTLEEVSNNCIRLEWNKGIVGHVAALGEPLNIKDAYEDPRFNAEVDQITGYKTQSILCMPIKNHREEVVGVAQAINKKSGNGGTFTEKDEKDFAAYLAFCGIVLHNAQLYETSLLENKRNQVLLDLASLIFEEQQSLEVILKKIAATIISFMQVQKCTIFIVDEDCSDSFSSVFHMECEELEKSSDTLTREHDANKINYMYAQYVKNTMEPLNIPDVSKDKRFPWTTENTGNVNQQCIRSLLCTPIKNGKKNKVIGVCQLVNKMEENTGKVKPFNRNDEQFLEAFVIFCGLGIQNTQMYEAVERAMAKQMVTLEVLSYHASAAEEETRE
Excerpt: RT-PCR method is used to obtain the cGB domain of PDE5 with forward and reverse primers designed from bovine PDE5A cDNA sequence (McAllister-Lucas L. M. et al, J. Biol. Chem. 268, 22863-22873, 1993) and the selection among PDE 1-10 families. 5′-3′, Inc. kits for total RNA followed by oligo (dT) column purification of mRNA are used with HT-29 cells. […] It is then cloned into pGEX-5×-3 […] (GST) fusion vector (Pharmacia Biotech) with tac promoter, and EcoRI and XhoI cut sites. The fusion vector is then transfected into E. Coli BL21 (DE3) bacteria (Invitrogen). The transfected BL21 bacteria is grown to log phase, and then IPTG is added as an inducer. The induction is carried at 20° C. for 24 hrs. The bacteria are harvested and lysed. The soluble cell lysate is incubated with GSH conjugated Sepharose 4B (GSH-Sepharose 4B). The GST-cGB-PDE5 fusion protein can bind to the GSH-Sepharose beads, and the other proteins are washed off from beads with excessive cold PBS.
The vials are counted on a Beckman LS 6500 scintillation counter.
The quenching by filter membrane or other debris are also calibrated.

[2] = Seven-day dose-range finding study in rats; format: in vivo; conditions: 7 days, 500 mg/kg/day
[3] = test system: U937 cells; experiment: Apoptosis induction of U937 cells (active caspase 3, indirect immunofluorescence); format: cell-based; conditions: 1 μM, 24 hours
Method: The presence of PDE2 and PDE5 protein within U937 cells was confirmed by indirect immunofluorescence (IIF). U937 cells were cultured as above. Two U937 cultures, one grown in the presence of 5 nM TPA for 48 hours and one grown in normal media were processed. All cultures were collected by centrifugation (Shandon Cytospin, 2 minutes @ 600 rpm) onto poly-L lysine-coated slides and immediately fixed in fresh 3% paraformaldehyde buffered in PBS for 10 minutes. Adherent cultures were grown on coverslips and fixed as above. Cells were permeablized in 0.2% triton-100 for 2 minutes. Slides were blocked with blocking buffer (5% goat serum, 5% glycerol, 1% gelatin from cold water fish skin and 0.04% NaN3 in PBS) for 1 hour at room temperature.
Slides were then incubated for 1 hour at 37° C. in a humid chamber with antibodies specific for PDE2 (generated in a sheep against the peptide […]) or PDE5 (generated in sheep against the peptide […]). The PDE5 antibody was used at a dilution of 1:200 and the PDE2 antibody was used at a dilution of 1:100. All dilutions were performed in blocking buffer. […]
The level of apoptosis in U937 cells was quantified by scoring 500 consecutive cells for the presence of active caspase 3. […]

[4] = Long-term safety assessment, 91 consecutive days, rats; format: in vivo; conditions: 91 days, 200 and 500 mg/kg/day
Excerpt: These changes were not associated with any gross clinical abnormality.

[5] = in vivo; cited from earlier work

Row | Molecule | competition with cGMP in binding of GST-cGB-PDE5 (cGMP binding sites) ([1]; 3H-cGMP 2 μM, 22° C., 1 hour) | other results
1 | CCCCOC1C2OP(=O)(O)OCC2OC1n1cnc2c(N)ncnc21 (stereo not shown) [2′-O-butyl-cAMP] | did not compete with cGMP in binding | 
2 | CCCCOC1C2OP(=O)(O)OCC2OC1n1cnc2c(=O)[nH]c(N)nc21 (stereo not shown) [2′-O-butyl-cGMP] | did not compete with cGMP in binding | 
3 | CC1=C(CC(=O)NCc2ccccc2)c2cc(F)ccc2/C1=C\c1ccncc1 [Compound 38, (Z)-5-Fluoro-2-Methyl-(4-Pyridylidene)-3-(N-Benzyl) Indenylacetamide Hydrochloride] | does not bind to the cGMP-binding site of PDE5 | treatment-related effects [2]: limited to an increase in absolute and relative liver weights in female rats; apoptosis by presence of active caspase 3 (FIG. 8) [3]: undergoing apoptosis; microscopic findings [4]: slight hepatocellular hypertrophy at 200 and 500 mg/kg/day groups, follicular cell hypertrophy at 500 mg/kg/day and increase in accumulation of hyalin droplets in the kidneys at 200 and 500 mg/kg/day group
4 | Nc1ncnc2c1ncn2[C@@H]1O[C@@H]2COP(=O)(O)O[C@H]2[C@H]1O [Cyclic AMP] |  | competition with cGMP in binding of GST-cGB-PDE5 (cGMP binding sites) [1]: did not compete with cGMP in binding
5 | O=c1[nH]cnc2c1ncn2[C@@H]1O[C@@H]2COP(=O)(O)O[C@H]2[C@H]1O [Cyclic IMP, cyclic IMP] |  | competition with cGMP in binding of GST-cGB-PDE5 [1]: can partially compete with cGMP
6 | Nc1nc2c(nc(Br)n2[C@@H]2O[C@@H]3COP(=O)(O)O[C@H]3[C@H]2O)c(=O)[nH]1 [Example 8-bromo-cGMP, 8-bromo-cGMP] |  | competition with cGMP in binding of GST-cGB-PDE5 [1]: can partially compete with cGMP
7 | O=C(O)C1CCN(c2nc(NCc3ccc4c(c3)OCO4)c3cc(Cl)ccc3n2)CC1 [Example E4021] | None of the PDE5 inhibitors showed any competition with cGMP | 
8 | CSc1ccc(/C=C2/C(C)=C(CC(=O)O)c3cc(F)ccc32)cc1 [Sulindac sulfide, sulindac sulfide] | None of the PDE5 inhibitors showed any competition with cGMP | 
9 | Nc1ccn([C@@H]2O[C@@H]3COP(=O)(O)O[C@H]3[C@H]2O)c(=O)n1 [cCMP, cyclic CMP] | did not compete with cGMP in binding | 
10 | O=c1ccn([C@@H]2O[C@@H]3COP(=O)(O)O[C@H]3[C@H]2O)c(=O)[nH]1 [cUMP, cyclic UMP] | did not compete with cGMP in binding | 
11 | CC1=C(CC(=O)O)c2cc(F)ccc2/C1=C\c1ccc(S(C)(=O)=O)cc1 [exisulind] | None of the PDE5 inhibitors showed any competition with cGMP | 
12 | CCCOc1ccccc1-c1nc2nn[nH]c2c(=O)[nH]1 [zaprinast] | None of the PDE5 inhibitors showed any competition with cGMP | 
13 | interferon gamma: interferon, drug that affects certain factors in the immune system |  | skin symptoms [5]: modest improvement in skin symptoms
